Reference: patent US12655462B2, “PLK1 target phosphorylation status and treatment of cancer with PLK1 inhibitors” (Cardiff Oncology, Inc., priority 2018, dated 2026)
Read-outs that look alike come from different tables or passages of the source.

Experiments:
[1] = molecular target: T1, PLK1 phosphorylation of TCTP in MV4-11 and HL-60 (Homo sapiens, UniProt P53350); assay: pTCTP in AML cell lines MV4-11 and HL-60, western blot (FIG. 2C); assay type: cell-based; details: MV4-11 and HL-60, 15 minutes; onvansertib 0.1 or 0.5 μM, cytarabine 10 or 100 nM, decitabine 0.2 or 1 μM
T1 construct: endogenous in cells; host or cells: MV4-11 and HL-60 AML cell lines
T1 sequence (P53350 whole entry): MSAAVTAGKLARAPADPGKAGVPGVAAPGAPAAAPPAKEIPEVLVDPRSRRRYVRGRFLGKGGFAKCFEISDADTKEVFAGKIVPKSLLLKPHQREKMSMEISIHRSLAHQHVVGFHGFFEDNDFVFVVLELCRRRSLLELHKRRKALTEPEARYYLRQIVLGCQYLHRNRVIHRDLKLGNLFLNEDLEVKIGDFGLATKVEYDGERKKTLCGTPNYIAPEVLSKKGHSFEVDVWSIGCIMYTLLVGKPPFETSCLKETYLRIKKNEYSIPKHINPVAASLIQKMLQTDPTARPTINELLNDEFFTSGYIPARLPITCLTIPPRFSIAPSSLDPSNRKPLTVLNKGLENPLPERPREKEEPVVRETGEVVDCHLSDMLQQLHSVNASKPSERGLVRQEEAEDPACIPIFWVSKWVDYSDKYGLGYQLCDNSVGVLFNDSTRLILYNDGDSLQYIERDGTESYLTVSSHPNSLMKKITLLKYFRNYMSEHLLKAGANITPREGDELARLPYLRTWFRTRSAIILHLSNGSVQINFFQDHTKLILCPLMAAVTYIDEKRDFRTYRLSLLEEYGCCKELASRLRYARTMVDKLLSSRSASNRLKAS
Description: (§1) Protein extracts were prepared from PBMC and cell lines using M-PER buffer (ThermoFisher) with 150 mM NaCl and 1× protease and phosphatase inhibitors cocktails (ThermoFisher). Protein concentration was measured with the Pierce BCA protein assay kit (ThermoFisher).
Western blots were performed as Simple Western™ assays using the Wes system (ProteinSimple), a combination of capillary electrophoresis and immunodetection techniques, following the manufacturer's protocols. Briefly, extracts with equal protein concentration were mixed with 0.1× sample buffer and 5× fluorescent master mix. Denatured protein samples, biotinylated ladder (ProteinSimple), primary antibodies, horseradish peroxidase (HRP)-conjugated secondary antibody (ProteinSimple), chemiluminescence substrate and wash buffer were dispensed into respective wells of the assay plate and placed in Wes equipment. Primary antibodies were purchased from Cell Signaling Technology: phospho-TCTP-Ser46 (#5251) and TCTP (#5128), and used at a concentration of 1:50. Quantitative analysis was performed using Compass software (ProteinSimple). […]
AML cell lines MV4-11 and HL-60 were treated for 15 minutes with onvansertib (PCM-075) (0.1 or 0.5 μM), cytarabine (10 or 100 nM) or decitabine (0.2 or 1 μM). Proteins were then extracted from the cells and assessed for pTCTP.

[2] = system: disseminated model of AML; details: combination therapy with cytarabine; cited from earlier work
[3] = system: HT29 human colon adenocarcinoma xenografts; details: combination with irinotecan, compared to each agent alone; cited from earlier work
[4] = molecular target: PLK1 (Homo sapiens, UniProt P53350); details: versus previous PLK inhibitors; cited from earlier work
PLK1, sequence (P53350 whole entry): as above

[5] = system: cancer cell lines; details: cited from earlier work
[6] = system: xenograft tumor; details: mice, oral administration, well tolerated doses; cited from earlier work
[7] = system: cell lines, both from solid as well as hematologic tumors; details: large number of cell lines, solid and hematologic tumors; cited from earlier work
[8] = molecular target: T2, PLK1 phosphorylation of TCTP (Homo sapiens, UniProt P53350); assay: Inhibition of pTCTP in vitro, western blot (FIG. 2B)
T2 sequence (P53350 whole entry): as above

[9] = system: advanced/metastatic solid tumors; details: adult subjects; cited from earlier work
[10] = system: acute myeloid leukemia (AML); assay: Clinical response of AML patients, trial NCT03303339 (leukemic cells in blood and bone marrow); assay type: in vivo, human
Description: Patient data provided herein is from patients in clinical trial NCT03303339, Onvansertib in Combination With Either Low-dose Cytarabine (LDAC) or Decitabine in Adult Patients With Acute Myeloid Leukemia (AML) (ClinicalTrials.gov).
Responders were defined as patients showing a decrease in circulating and bone marrow blasts during treatment.

[11] = molecular target: T2, PLK1 phosphorylation of TCTP; assay: pTCTP (Ser46) in patient blood PBMC before and 3 hours after onvansertib; assay type: in vivo; parameters: Protein extracts were prepared from PBMC and cell lines using M-PER buffer; from tissue; host or cells: peripheral blood mononuclear cells from AML patients' blood; details: for decrease in pTCTP in patient blood: three patients, as early as three hours
Description: Determination of phosphorylation of serine 46 of TCTP in blood was as follows. Peripheral blood mononuclear cells (PBMC) were isolated from a Cellsave blood tube (Menarini Silicon Biosystems) using Leucosep centrifuge tubes (VWR) and Histopaque-1077 (Sigma) according to the manufacturer's recommendations.
as §1
Western blots were performed as Simple Western™ assays using the Wes system (ProteinSimple), a combination of capillary electrophoresis and immunodetection techniques, following the manufacturer's protocols. Briefly, extracts with equal protein concentration were mixed with 0.1× sample buffer and 5× fluorescent master mix. Denatured protein samples, biotinylated ladder (ProteinSimple), primary antibodies, horseradish peroxidase (HRP)-conjugated secondary antibody (ProteinSimple), chemiluminescence substrate and wash buffer were dispensed into respective wells of the assay plate and placed in Wes equipment. Primary antibodies were purchased from Cell Signaling Technology: phospho-TCTP-Ser46 (#5251) and TCTP (#5128), and used at a concentration of 1:50. Quantitative analysis was performed using Compass software (ProteinSimple). Signal intensity (area) of pTCTP was normalized to the peak area of TCTP and reported as % pTCTP.
PLK1 inhibition in patients was assessed in blood taken 3-hours following administration of onvansertib at peak concentration (Cmax).
Blood samples were collected before, and 3 hours after, onvansertib treatment from patients enrolled in the trial described in Example 1. The onvansertib treatments were 12, 18, 27, or 40 mg/m^2. pTCTP and TCTP were assessed by Western-Blot and % pTCTP (pTCTP/TCTP) was quantified.
In these studies, biomarker positivity was defined as ≥50% decrease in % pTCTP from T=0 to T=3h.

[12] = cited from earlier work; for half-life: oral administration
[13] = combination with LDAC or decitabine

## Nc1ccn([C@@H]2O[C@H](CO)[C@@H](O)[C@@H]2O)c(=O)n1 [cytarabine]
[1]
  inhibition of pTCTP: but not cytarabine or decitabine, inhibited pTCTP

## CN1CCN(c2ccc(OC(F)(F)F)c(Nc3ncc4c(n3)-c3c(c(C(N)=O)nn3CCO)CC4)c2)CC1 [onvansertib, 1-(2-hydroxyethyl)-8-{[5-(4-methylpiperazin-1-yl)-2-(trifluoromethoxy)phenyl]amino}-4,5-dihydro-1H-pyrazolo[4,3-h] quinazoline-3-carboxamide]
[2]
  survival of animals: prolonged survival
[1]
  inhibition of pTCTP: inhibited pTCTP
[3]
  tumor regression: enhanced tumor regression
[4]
  selectivity for PLK1: high selectivity for PLK1 only
[5]
  mitotic cell-cycle arrest followed by apoptosis: potently causes a mitotic cell-cycle arrest followed by apoptosis
[6]
  xenograft tumor growth: inhibits xenograft tumor growth
[7]
  potency in proliferation assays: low nanomolar activity
[8]
  inhibition of pTCTP in vitro: inhibits pTCTP in vitro, in a dose-dependent manner
[9]
  evaluable patients with stable disease: 5 of 16
  recommended phase 2 dose: 24 mg/m^2
[10]; [13]
  biomarker positive patients with a decrease in BM blasts≥50%: six out of the nine
  patients with complete response [CR] or CR with incomplete hematological recovery [CRi]: Four
[10]; in combination with low-dose cytarabine (LDAC) or decitabine
  patients exhibiting a response (decrease in leukemic cells in blood and bone marrow): Three of 6
[10]; patient 07-009, combination with decitabine
  leukemic cells in bone marrow, decrease: 96% to 55%
[10]; patient 07-011, combination with decitabine
  leukemic cells in bone marrow, decrease: 55% to 15%
[11]; 5 non-responders, higher dose 18 mg/m^2
  decrease of pTCTP in cells of non-responders: did not show a decrease of pTCTP
[11]; the one biomarker negative patient with objective response
  decrease in pTCTP: 40%
[11]; onvansertib and LDAC
  decrease in pTCTP in patient blood: only the responder showed a decrease in pTCTP
[11]; onvansertib and decitabine
  decrease in pTCTP in patient blood: only the two responders showed a decrease in pTCTP
[12]
  half-life: about 24 hours
[12]; listed as Onvansertib
  half-life: ~24 h
[12]; rodent and nonrodent species
  oral bioavailability: good oral bioavailability
